Measured values reported in ChEMBL document CHEMBL4371015, “Synthesis and biological evaluation of bifendate derivatives bearing acrylamide moiety as novel antioxidant agents” (Eur J Med Chem, 2019).
Activity calls are given as the source filed them. The calls are words filed in the database; no cut-off is given here.

Assays:
[1] = test system: HBZY-1; assay: Cytotoxicity against rat HBZY-1 cells assessed as decrease in cell viability after 72 hrs by MTT assay; type: cell-based; conditions: HBZY-1, 72 h
[2] = target: T1, Nuclear factor erythroid 2-related factor 2 (Rattus norvegicus) (UniProt O54968); assay: Activation of Nrf2 in rat HBZY-1 cells assessed as increase in GCLC level at 6 uM by Western blot analysis; type: cell-based
T1 sequence (whole entry): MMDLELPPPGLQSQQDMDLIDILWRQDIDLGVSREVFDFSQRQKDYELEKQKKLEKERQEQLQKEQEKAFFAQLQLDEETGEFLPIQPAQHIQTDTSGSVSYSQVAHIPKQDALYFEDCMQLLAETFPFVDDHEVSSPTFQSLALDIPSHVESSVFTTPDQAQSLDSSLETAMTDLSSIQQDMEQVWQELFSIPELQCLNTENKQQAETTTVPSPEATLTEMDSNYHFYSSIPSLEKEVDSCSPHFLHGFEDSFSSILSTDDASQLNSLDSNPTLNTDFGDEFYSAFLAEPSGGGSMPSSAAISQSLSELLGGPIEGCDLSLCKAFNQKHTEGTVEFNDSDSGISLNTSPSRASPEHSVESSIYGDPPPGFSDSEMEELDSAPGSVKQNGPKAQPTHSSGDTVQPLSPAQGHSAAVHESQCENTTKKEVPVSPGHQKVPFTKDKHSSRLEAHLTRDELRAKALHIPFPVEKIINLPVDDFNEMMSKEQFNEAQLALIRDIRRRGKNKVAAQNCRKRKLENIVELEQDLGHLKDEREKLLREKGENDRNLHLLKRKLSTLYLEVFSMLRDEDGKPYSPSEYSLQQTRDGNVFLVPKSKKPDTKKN

[3] = target: T1, Nuclear factor erythroid 2-related factor 2 (Rattus norvegicus); assay: Activation of Nrf2 in rat HBZY-1 cells assessed as increase in GCLC mRNA expression at 6 uM after 24 hrs by RT-PCR analysis; type: cell-based
[4] = target: T1, Nuclear factor erythroid 2-related factor 2 (Rattus norvegicus); assay: Activation of Nrf2 in rat HBZY-1 cells assessed as increase in NQO-1 level at 6 uM by Western blot analysis; type: cell-based
[5] = target: T1, Nuclear factor erythroid 2-related factor 2 (Rattus norvegicus); assay: Activation of Nrf2 in rat HBZY-1 cells assessed as increase in HO-1 level at 6 uM by Western blot analysis; type: cell-based
[6] = target: T1, Nuclear factor erythroid 2-related factor 2 (Rattus norvegicus); assay: Activation of Nrf2 in rat HBZY-1 cells assessed as increase in HO-1 mRNA expression at 6 uM after 24 hrs by RT-PCR analysis; type: cell-based
[7] = target: T1, Nuclear factor erythroid 2-related factor 2 (Rattus norvegicus); assay: Activation of Nrf2 in rat HBZY-1 cells assessed as increase in NQO-1 mRNA expression at 6 uM after 24 hrs by RT-PCR analysis; type: cell-based
[8] = target: T1, Nuclear factor erythroid 2-related factor 2 (Rattus norvegicus); assay: Activation of Nrf2 in rat HBZY-1 cells assessed as increase in GCLM level at 6 uM by Western blot analysis; type: cell-based
[9] = target: T1, Nuclear factor erythroid 2-related factor 2 (Rattus norvegicus); assay: Activation of Nrf2 in rat HBZY-1 cells assessed as increase in GCLM mRNA expression at 6 uM after 24 hrs by RT-PCR analysis; type: cell-based
[10] = test system: HBZY-1; assay: Cytoprotection against H2O2-induced cell death in rat HBZY-1 cells assessed as increase in cell viability at 6 uM preincubated for 2 hrs followed by H2O2 addition and measured after 24 hrs by MTT assay; type: functional, cell-based
[11] = test system: HBZY-1; assay: Cytoprotection against H2O2-induced cell death in rat HBZY-1 cells assessed as cell viability at 100 uM preincubated for 2 hrs followed by H2O2 addition and measured after 24 hrs by MTT assay (reference value: 62.1%); type: functional; conditions: read-out: Activity
[12] = test system: HBZY-1; assay: Cytoprotection against H2O2-induced cell death in rat HBZY-1 cells assessed as cell viability at 6 uM preincubated for 2 hrs followed by H2O2 addition and measured after 24 hrs by MTT assay (reference value: 62.1%); type: functional; conditions: read-out: Activity
[13] = test system: HBZY-1; assay: Cytoprotection against H2O2-induced cell death in rat HBZY-1 cells assessed as increase in cell viability at 6 uM preincubated for 2 hrs with 10 nM BSO prior to compound addition followed by 2 hrs incubation before H2O2 addition and measured after 24 hrs by MTT assay; type: functional, cell-based
[14] = test system: HBZY-1; assay: Cytoprotection against H2O2-induced cell death in rat HBZY-1 cells assessed as increase in cell viability at 6 uM preincubated for 2 hrs with 20 nM BSO prior to compound addition followed by 2 hrs incubation before H2O2 addition and measured after 24 hrs by MTT assay; type: functional, cell-based
[15] = target: T2, Keap1/Nrf2 (Homo sapiens) (UniProt Q16236+Q14145); assay: Induction of Keap1/Nrf2 (unknown origin) interaction assessed as reduction in Nfr2 level in absence of DTT by Western blot analysis; type: protein assay
T2 sequence (Q14145 whole entry, looked up, one chain of several): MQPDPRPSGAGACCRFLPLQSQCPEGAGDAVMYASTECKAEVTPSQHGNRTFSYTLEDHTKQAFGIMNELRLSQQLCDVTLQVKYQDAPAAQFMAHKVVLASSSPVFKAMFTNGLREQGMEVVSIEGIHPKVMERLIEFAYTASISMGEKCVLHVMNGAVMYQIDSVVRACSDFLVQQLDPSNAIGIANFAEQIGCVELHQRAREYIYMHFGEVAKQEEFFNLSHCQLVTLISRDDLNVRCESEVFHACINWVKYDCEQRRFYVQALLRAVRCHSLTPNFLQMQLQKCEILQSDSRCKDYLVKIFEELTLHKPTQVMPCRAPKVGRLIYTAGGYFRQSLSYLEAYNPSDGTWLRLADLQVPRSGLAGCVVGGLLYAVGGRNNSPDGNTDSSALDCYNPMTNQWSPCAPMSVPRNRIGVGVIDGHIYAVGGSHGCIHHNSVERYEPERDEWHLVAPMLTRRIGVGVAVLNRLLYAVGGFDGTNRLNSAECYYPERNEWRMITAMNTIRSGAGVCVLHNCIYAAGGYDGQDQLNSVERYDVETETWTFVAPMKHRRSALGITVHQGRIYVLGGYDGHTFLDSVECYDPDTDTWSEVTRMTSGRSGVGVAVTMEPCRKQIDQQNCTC

[16] = target: T3, Nuclear factor erythroid 2-related factor 2 (Homo sapiens) (UniProt Q16236); assay: Activation of Nrf2 (unknown origin) expressed in HEK293 cells after 16 hrs by luciferase reporter gene assay; type: cell-based
T3 sequence (whole entry): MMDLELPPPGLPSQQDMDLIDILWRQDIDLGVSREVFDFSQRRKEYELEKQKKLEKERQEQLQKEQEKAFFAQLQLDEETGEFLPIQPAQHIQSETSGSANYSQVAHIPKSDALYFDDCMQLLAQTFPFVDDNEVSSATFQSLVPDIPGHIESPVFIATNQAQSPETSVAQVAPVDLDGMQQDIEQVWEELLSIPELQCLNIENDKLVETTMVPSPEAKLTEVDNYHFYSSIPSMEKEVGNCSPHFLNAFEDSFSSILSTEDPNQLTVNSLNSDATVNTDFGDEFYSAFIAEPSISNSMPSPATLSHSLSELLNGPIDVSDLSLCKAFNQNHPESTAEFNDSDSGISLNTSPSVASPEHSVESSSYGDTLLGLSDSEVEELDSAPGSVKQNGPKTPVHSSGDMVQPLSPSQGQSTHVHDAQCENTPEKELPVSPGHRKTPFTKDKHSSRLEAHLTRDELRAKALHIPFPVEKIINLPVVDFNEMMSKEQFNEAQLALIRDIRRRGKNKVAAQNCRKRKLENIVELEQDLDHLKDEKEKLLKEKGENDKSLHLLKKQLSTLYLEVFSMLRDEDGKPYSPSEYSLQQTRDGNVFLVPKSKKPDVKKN

[17] = target: T2, Keap1/Nrf2 (Homo sapiens); assay: Induction of Keap1/Nrf2 (unknown origin) interaction assessed as reduction in Nfr2 level in presence of DTT by Western blot analysis; type: protein assay
[18] = test system: HBZY-1; assay: Cytoprotection against H2O2-induced cell death in rat HBZY-1 cells assessed as increase in cell viability at 6 uM preincubated for 2 hrs with 200 nM TRG prior to compound addition followed by 2 hrs incubation before H2O2 addition and measured after 24 hrs by MTT assay; type: functional, cell-based
[19] = test system: HBZY-1; assay: Cytoprotection against H2O2-induced cell death in rat HBZY-1 cells assessed as increase in cell viability preincubated for 2 hrs followed by H2O2 addition and measured after 24 hrs by MTT assay; type: functional, cell-based
[20] = test system: HBZY-1; assay: Antioxidant activity in rat HBZY-1 cells assessed as inhibition of H2O2-induced ROS accumulation […] for 12 hrs followed by H2O2 addition and measured after 3 hrs by DCFHA-DA/FITC staining-based FACS analysis; type: functional, cell-based
[21] = target: T2, Keap1/Nrf2 (Homo sapiens); assay: Induction of Keap1/Nrf2 (unknown origin) interaction assessed as increase in Nfr2 level in presence of DTT by Western blot analysis; type: protein assay
[22] = test system: HBZY-1; assay: Cytotoxicity against rat HBZY-1 cells assessed as decrease in cell viability up to 200 uM after 72 hrs by MTT assay; type: cell-based; conditions: hbzy-1, 72 h
[23] = test system: HBZY-1; assay: Cytoprotection against H2O2-induced cell death in rat HBZY-1 cells assessed as increase in cell viability at 6 uM preincubated for 2 hrs with 6 nM ZNPP prior to compound addition followed by 2 hrs incubation before H2O2 addition and measured after 24 hrs by MTT assay; type: functional, cell-based
[24] = test system: HBZY-1; assay: Cytoprotection against H2O2-induced cell death in rat HBZY-1 cells assessed as increase in cell viability at 6 uM preincubated for 2 hrs with 3 nM ZNPP prior to compound addition followed by 2 hrs incubation before H2O2 addition and measured after 24 hrs by MTT assay; type: functional, cell-based
[25] = test system: HBZY-1; assay: Cytoprotection against H2O2-induced cell death in rat HBZY-1 cells assessed as increase in cell viability at 6 uM pre-incubated for 2 hrs with 100 nM TRG prior to compound addition followed by 2 hrs incubation before H2O2 addition and measured after 24 hrs by MTT assay; type: functional, cell-based
[26] = target: T2, Keap1/Nrf2 (Homo sapiens); assay: Induction of Keap1/Nrf2 (unknown origin) interaction assessed as increase in Nfr2 level in absence of DTT by Western blot analysis; type: protein assay

COC(=O)c1cc(OC)c2c(c1-c1c(/C=C/C(=O)NCc3ccc(OC)cc3)cc(OC)c3c1OCO3)OCO2
IC50 [1]: > 200 µM

COC(=O)c1cc(OC)c2c(c1-c1c(/C=C/C(=O)Nc3cc(OC)c(OC)c(OC)c3)cc(OC)c3c1OCO3)OCO2
IC50 [1]: > 200 µM

COC(=O)c1cc(OC)c2c(c1-c1c(/C=C(\C#N)C(=O)Nc3cc(OC)c(OC)c(OC)c3)cc(OC)c3c1OCO3)OCO2
IC50 [1]: > 200 µM

Oc1ccc(/C=C/c2cc(O)cc(O)c2)cc1
Activity [2]: Active
Activity [3]: Active
Activity [4]: Active
Activity [5]: Active
Activity [6]: Active
Activity [7]: Active
Activity [8]: Active
Activity [9]: Active

COc1ccccc1NC(=O)/C(C#N)=C/c1ccc(OC)c(OC)c1
Activity [10]: inactive
IC50 [1]: > 200 µM

COC(=O)c1cc(OC)c2c(c1-c1c(/C=C/C(=O)NCCc3ccc(OC)c(OC)c3)cc(OC)c3c1OCO3)OCO2
IC50 [1]: > 200 µM

CCCCNC(=O)/C=C/c1cc(OC)c2c(c1-c1c(C(=O)OC)cc(OC)c3c1OCO3)OCO2
IC50 [1]: > 200 µM

COc1ccccc1NC(=O)/C(C#N)=C/c1cc(OC)c(OC)c(OC)c1
Activity [10]: inactive
IC50 [1]: > 200 µM

COC(=O)c1cc(OC)c2c(c1-c1c(C(=O)OC)cc(OC)c3c1OCO3)OCO2 [BIFENDATE]
viability at 100 µM [11]: 89.8%
viability at 6 µM [12]: 66.1%

COC(=O)c1cc(OC)c2c(c1-c1c(/C=C(\C#N)C(=O)Nc3ccc(OC)c(OC)c3)cc(OC)c3c1OCO3)OCO2
IC50 [1]: > 200 µM

COC(=O)c1cc(OC)c2c(c1-c1c(/C=C(\C#N)C(=O)NCc3ccc(OC)cc3)cc(OC)c3c1OCO3)OCO2
IC50 [1]: > 200 µM

COc1ccc(/C=C(\C#N)C(=O)Nc2ccccc2OC)cc1
Activity [10]: inactive
IC50 [1]: > 200 µM

COC(=O)c1cc(OC)c2c(c1-c1c(/C=C/C(=O)Nc3ccc(OC)c(OC)c3)cc(OC)c3c1OCO3)OCO2
IC50 [1]: > 200 µM

COC(=O)c1cc(OC)c2c(c1-c1c(/C=C(\C#N)C(=O)NCCc3ccc(OC)c(OC)c3)cc(OC)c3c1OCO3)OCO2
IC50 [1]: > 200 µM

COC(=O)c1cc(OC)c2c(c1-c1c(/C=C/C(=O)Nc3ccccc3OC)cc(OC)c3c1OCO3)OCO2
IC50 [1]: > 200 µM
viability at 6 µM [12]: 90.6%

COC(=O)c1cc(OC)c2c(c1-c1c(/C=C(\C#N)C(=O)Nc3ccc(OC)cc3)cc(OC)c3c1OCO3)OCO2
Activity [13]: inactive
Activity [14]: inactive
Activity [15]: Active
Activity [16]: Dose-dependent effect
inhibition [17]: inactive
Activity [18]: inactive
Activity [19]: Dose-dependent effect
inhibition [20]: Dose-dependent effect
IC50 [1]: > 200 µM
inhibition [21]: inactive
Activity [22]: Non-Toxic
Activity [23]: inactive
Activity [24]: inactive
Activity [25]: inactive
viability at 6 µM [12]: 97.2%
Activity [26]: Active

CCCCNC(=O)/C(C#N)=C/c1cc(OC)c2c(c1-c1c(C(=O)OC)cc(OC)c3c1OCO3)OCO2
IC50 [1]: > 200 µM
viability at 6 µM [12]: 95.3%

COC(=O)c1cc(OC)c2c(c1-c1c(/C=C/C(=O)Nc3ccc(OC)cc3)cc(OC)c3c1OCO3)OCO2
IC50 [1]: > 200 µM

COC(=O)c1cc(OC)c2c(c1-c1c(/C=C(\C#N)C(=O)Nc3ccccc3OC)cc(OC)c3c1OCO3)OCO2
Activity [19]: Dose-dependent effect
IC50 [1]: > 200 µM
Activity [22]: Toxic
viability at 6 µM [12]: 99.2%
